Results reported in PMC6941952, “A homogeneous bioluminescent immunoassay to probe cellular signaling pathway regulation” (Communications Biology, 2020).
Where “and” joins values, the source holds several entries; their conditions need not be identical. Equal values may be shown once. Where a SMILES comes first, the peptide text is derived from it. The star is where a group is joined. Cbz = O=C(OCc1ccccc1)*

What was measured:
[1] = test system: total IκBα; assay: NanoBiT cell-based immunoassay, total IκBα in MCF-7 cells; set-up: species or system human; details: for Total IkB Average: background subtracted
Protocol: Prior to NanoBiT Cell-Based Immunoassay, 50,000 cells were seeded in 160 µl of complete growth media per well of a 96-well plate and incubated overnight. […] If necessary, the cell culture media were replaced with serum-free media after the cells were stably adherent on the plate and incubated overnight. To treat cells with activators or inhibitors, medium was changed to 30 µl of medium containing inhibitors. If activation of a specific pathway is needed, the cells were stimulated with 10 µl of medium containing activators. To lyse the cells, 10 µl of lysis buffer containing 0.1% digitonin diluted in 1X immunoassay buffer with protease and phosphatase inhibitors was added and the plates were mixed vigorously for 20 min. Then, 50 µl of an antibody mix containing two primary antibodies against the target protein and NanoBiT detecting antibodies (0.3 µl each per well), diluted in 1X immunoassay buffer was added to the lysates. The plates were incubated at 23 °C for 90 min, followed by the addition of 25 µl of Nano-Glo® reagent consisting of Nano-Glo® Luciferase Assay Substrate mixed with 1X immunoassay buffer. Luminescence was measured using a plate-reading luminometer.
Single dose or dose response inhibitor treatments were performed prior to activation of the pathways as follows. For IκBα, the cells were treated in 30 µl medium with IKK16 or MG132 for 60 min before the addition of 10 µl of DMEM containing appropriate concentration of TNFα. To measure phosphorylation of AKT or STAT3, the corresponding NanoBiT immunoassays were developed with MCF-7 or A431 cells, respectively, according the same scheme used to develop the IκBα assay using the primary antibodies for AKT and STAT3 described in the reagents section. […] Treatment with LY294002 was performed in 30 µl medium and cells were incubated for 60 min before the addition of 1 µM Insulin. To measure STAT3 phosphorylation, A431 cells were incubated overnight in DMEM medium without serum. […] After addition of the stimulators, the cells were incubated for additional times as follows. IκBα phosphorylation and degradation analyses required both time courses and single time points as described in figures. […] The NanoBiT immunoassay protocol was followed as described above.
(§1) All 96-well assay plates were read using a GloMax® 96 Microplate Luminometer from Promega. The instrument was set to 0.5 s integration time. In order to obtain net change of signal, the reagent background values (signal from the well containing all reagent except primary antibodies) were subtracted from the sample values. To plot and analyze the data, Microsoft Excel and GraphPad Prism® Software were used. IC50 values were determined by using a nonlinear regression fit to a sigmoidal dose response (variable slope).

[2] = test system: phospho-IκBα (Ser32); assay: NanoBiT cell-based immunoassay, phosphorylated IκBα in MCF-7 cells; set-up: species or system human; details: for P-IkB Average: background subtracted
Protocol: Prior to NanoBiT Cell-Based Immunoassay, 50,000 cells were seeded in 160 µl of complete growth media per well of a 96-well plate and incubated overnight. The cells were checked under microscope and it was determined that 50,000 cells per well in 96-well plate is under 90% confluency for all cells tested. If necessary, the cell culture media were replaced with serum-free media after the cells were stably adherent on the plate and incubated overnight. To treat cells with activators or inhibitors, medium was changed to 30 µl of medium containing inhibitors. If activation of a specific pathway is needed, the cells were stimulated with 10 µl of medium containing activators. To lyse the cells, 10 µl of lysis buffer containing 0.1% digitonin diluted in 1X immunoassay buffer with protease and phosphatase inhibitors was added and the plates were mixed vigorously for 20 min. Then, 50 µl of an antibody mix containing two primary antibodies against the target protein and NanoBiT detecting antibodies (0.3 µl each per well), diluted in 1X immunoassay buffer was added to the lysates. The plates were incubated at 23 °C for 90 min, followed by the addition of 25 µl of Nano-Glo® reagent consisting of Nano-Glo® Luciferase Assay Substrate mixed with 1X immunoassay buffer. Luminescence was measured using a plate-reading luminometer.
In all, 50,000 MCF-7 cells were seeded in 160 µl complete growth medium per well of a 96-well plate and incubated overnight. Half of the cells were treated with 50 ng per ml TNFα and half with vehicle. Cells were lysed as described above and a mixture of NanoBiT secondary antibodies with primary antibodies at the matrix concentrations described in Fig. 2a were added. After 90 min incubation, the Nano-Glo® reagent was added to the reactions as described above and luminescence was measured using a plate-reading luminometer.
Single dose or dose response inhibitor treatments were performed prior to activation of the pathways as follows. For IκBα, the cells were treated in 30 µl medium with IKK16 or MG132 for 60 min before the addition of 10 µl of DMEM containing appropriate concentration of TNFα. To measure phosphorylation of AKT or STAT3, the corresponding NanoBiT immunoassays were developed with MCF-7 or A431 cells, respectively, according the same scheme used to develop the IκBα assay using the primary antibodies for AKT and STAT3 described in the reagents section. For the AKT assay, MCF-7 cells were incubated overnight in phenol-red free DMEM medium (Gibco #21063-029) without serum. Treatment with LY294002 was performed in 30 µl medium and cells were incubated for 60 min before the addition of 1 µM Insulin. To measure STAT3 phosphorylation, A431 cells were incubated overnight in DMEM medium without serum. […] After addition of the stimulators, the cells were incubated for additional times as follows. IκBα phosphorylation and degradation analyses required both time courses and single time points as described in figures. […] The NanoBiT immunoassay protocol was followed as described above.
as §1

## CC(C)C[C@@H](C=O)NC(=O)[C@H](CC(C)C)NC(=O)[C@H](CC(C)C)NC(=O)OCc1ccccc1 [MG132] (Cbz-Leu-Leu-Leu-aldehyde)
[1]; MCF-7 cells, 20 µM 1 h pretreatment, TNFα 50 ng per ml
  TNFα-induced degradation of IκBα: inhibited
[1]; MG132, TNF 0 min
  Total IkB Raw data: 86990 and 84090 and 85790 and 87340
  Total IkB Subtract reagent background: 70533 and 70183 and 67283 and 68983
  Total IkB Average: 69245
[1]; MG132, TNF 2 min
  Total IkB Raw data: 89610 and 87100 and 86710 and 88460
  Total IkB Subtract reagent background: 71653 and 72803 and 70293 and 69903
  Total IkB Average: 71163
[1]; MG132, TNF 4 min
  Total IkB Raw data: 87350 and 84610 and 87580 and 85650
  Total IkB Subtract reagent background: 68843 and 70543 and 67803 and 70773
  Total IkB Average: 69490
[1]; MG132, TNF 6 min
  Total IkB Raw data: 86900 and 82270 and 84580 and 89030
  Total IkB Subtract reagent background: 72223 and 70093 and 65463 and 67773
  Total IkB Average: 68888
[1]; MG132, TNF 8 min
  Total IkB Raw data: 86550 and 79990 and 82380 and 88200
  Total IkB Subtract reagent background: 71393 and 69743 and 63183 and 65573
  Total IkB Average: 67473
[1]; MG132, TNF 10 min
  Total IkB Raw data: 86190 and 79560 and 78070 and 90680
  Total IkB Subtract reagent background: 73873 and 69383 and 62753 and 61263
  Total IkB Average: 66818
[1]; MG132, TNF 12 min
  Total IkB Raw data: 85440 and 78280 and 77940 and 85890
  Total IkB Subtract reagent background: 69083 and 68633 and 61473 and 61133
  Total IkB Average: 65080
[1]; MG132, TNF 15 min
  Total IkB Raw data: 85380 and 79290 and 77150 and 87460
  Total IkB Subtract reagent background: 70653 and 68573 and 62483 and 60343
  Total IkB Average: 65513
[1]; MG132, TNF 30 min
  Total IkB Raw data: 74090 and 69470 and 69970 and 74150
  Total IkB Subtract reagent background: 57343 and 57283 and 52663 and 53163
  Total IkB Average: 55113
[2]; MG132, TNF 0 min
  P-IkB Raw data: 22120 and 22340 and 21000 and 22420
  P-IkB Subtract reagent background: 5850 and 5550 and 5770 and 4430
  P-IkB Average: 5400
[2]; MG132, TNF 2 min
  P-IkB Raw data: 23520 and 22950 and 21920 and 24690
  P-IkB Subtract reagent background: 8120 and 6950 and 6380 and 5350
  P-IkB Average: 6700
[2]; MG132, TNF 4 min
  P-IkB Raw data: 23590 and 23010 and 22240 and 23600
  P-IkB Subtract reagent background: 7030 and 7020 and 6440 and 5670
  P-IkB Average: 6540
[2]; MG132, TNF 6 min
  P-IkB Raw data: 26150 and 25190 and 24160 and 26140
[2]; MG132, TNF 8 min
  P-IkB Raw data: 31970 and 30150 and 26560 and 32480
  P-IkB Subtract reagent background: 15910 and 15400 and 13580 and 9990
  P-IkB Average: 13720
[2]; MG132, TNF 10 min
  P-IkB Raw data: 38930 and 36060 and 31570 and 39590
  P-IkB Subtract reagent background: 23020 and 22360 and 19490 and 15000
  P-IkB Average: 19968
[2]; MG132, TNF 12 min
  P-IkB Raw data: 47120 and 43420 and 37410 and 48430
  P-IkB Subtract reagent background: 31860 and 30550 and 26850 and 20840
  P-IkB Average: 27525
[2]; MG132, TNF 15 min
  P-IkB Raw data: 56120 and 51230 and 43530 and 56550
  P-IkB Subtract reagent background: 39980 and 39550 and 34660 and 26960
  P-IkB Average: 35288
[2]; MG132, TNF 30 min
  P-IkB Raw data: 63690 and 60630 and 51570 and 63760
  P-IkB Subtract reagent background: 47190 and 47120 and 44060 and 35000
  P-IkB Average: 43343

## C[C@@H]1C[C@@H]([C@H](O)CC2CC(=O)NC(=O)C2)C(=O)[C@@H](C)C1 [cycloheximide]
[1]; MCF-7 cells, TNFα 50 ng per ml, 20 µg per ml added after 30 min
  IκBα after the degradation phase (de novo synthesis): not detected
